Results taken from publication PMC6378217, “The lysyl oxidase like 2/3 enzymatic inhibitor, PXS‐5153A, reduces crosslinks and ameliorates fibrosis” (Journal of Cellular and Molecular Medicine, 2018).

Assays:
[1] = molecular target: T1, Recombinant human LOXL1 (Homo sapiens, UniProt Q08397); assay: Amplex-Red fluorometric enzymatic activity assay, recombinant human LOXL1; type: biochemical; settings: 30 minute pre-incubation; average of at least three experiments
T1 construct: made in house
Description: (§1) The measurement of the enzymatic activity of all lysyl oxidase family members was based on the detection of hydrogen peroxide with an Amplex‐Red oxidation assay, as described in Zhou et al26 Recombinant human semicarbazide sensitive amine oxidase (SSAO/VAP1), diamine oxidase (DAO) and monoamine oxidases A and B (MAO‐A and MAO‐B) assays were performed as previously described.27 For detailed enzymatic procedures, see supporting information.
The measurement of the enzymatic activity of all lysyl oxidase family members was based on the detection of hydrogen peroxide with an Amplex-Red oxidation assay, as described in Zhou et al.[1]; miniaturised in 384 well format, with the appropriate combination of substrate and assay buffer for each individual enzyme. After a 30 minute pre-incubation of the enzyme at 37 °C with the test compound (or with different incubation times for the time-dependency assay), one volume of reaction mixture containing 120 μM Amplex Red (AR) (Life Technologies), 1.5 U/mL horseradish peroxidase (HRP) (Sigma-Aldrich) and the specific substrate was added to each sample. The relative fluorescence units (RFU) were then measured every 2.5 minutes for 30 minutes at 37°C, excitation 565 nm and emission 590, on a BMG Clariostar Microplate Reader. […]

[2] = molecular target: MAO-B (Homo sapiens, UniProt P27338); assay: MAO-B enzymatic activity assay; type: biochemical
Description: as §1
Recombinant human semicarbazide sensitive amine oxidase (SSAO/VAP1), diamine oxidase (DAO) and monoamine oxidases A and B (MAO-A and MAO-B) assays were performed as previously described.

[3] = molecular target: T2, LOXL2 (Homo sapiens, UniProt Q9Y4K0); assay: Time dependency of LOXL2 inhibition; type: biochemical
T2 sequence (Q9Y4K0 26-774): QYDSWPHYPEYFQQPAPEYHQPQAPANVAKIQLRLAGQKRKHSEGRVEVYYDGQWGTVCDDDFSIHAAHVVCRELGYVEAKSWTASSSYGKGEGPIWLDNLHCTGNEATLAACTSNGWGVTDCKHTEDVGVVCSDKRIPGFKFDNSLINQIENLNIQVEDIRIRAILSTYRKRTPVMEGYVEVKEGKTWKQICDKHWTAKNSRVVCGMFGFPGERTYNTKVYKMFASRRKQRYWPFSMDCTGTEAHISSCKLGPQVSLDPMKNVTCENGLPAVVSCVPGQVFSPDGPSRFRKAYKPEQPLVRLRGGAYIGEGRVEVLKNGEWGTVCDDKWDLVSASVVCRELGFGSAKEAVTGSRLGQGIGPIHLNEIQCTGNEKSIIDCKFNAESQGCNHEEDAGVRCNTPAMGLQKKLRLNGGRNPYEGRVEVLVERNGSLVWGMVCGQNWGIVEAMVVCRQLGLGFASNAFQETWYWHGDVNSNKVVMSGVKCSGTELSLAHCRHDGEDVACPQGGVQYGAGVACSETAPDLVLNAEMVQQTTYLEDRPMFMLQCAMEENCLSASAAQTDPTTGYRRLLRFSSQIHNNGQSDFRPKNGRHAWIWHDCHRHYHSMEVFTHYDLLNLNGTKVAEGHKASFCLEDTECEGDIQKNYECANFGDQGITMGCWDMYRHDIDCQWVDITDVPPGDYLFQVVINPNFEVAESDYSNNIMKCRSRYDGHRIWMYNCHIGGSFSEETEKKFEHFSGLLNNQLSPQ
Description: The measurement of the enzymatic activity of all lysyl oxidase family members was based on the detection of hydrogen peroxide with an Amplex-Red oxidation assay, as described in Zhou et al.[1]; miniaturised in 384 well format, with the appropriate combination of substrate and assay buffer for each individual enzyme. After a 30 minute pre-incubation of the enzyme at 37 °C with the test compound (or with different incubation times for the time-dependency assay), one volume of reaction mixture containing 120 μM Amplex Red (AR) (Life Technologies), 1.5 U/mL horseradish peroxidase (HRP) (Sigma-Aldrich) and the specific substrate was added to each sample. The relative fluorescence units (RFU) were then measured every 2.5 minutes for 30 minutes at 37°C, excitation 565 nm and emission 590, on a BMG Clariostar Microplate Reader. All the substrates were used at concentrations corresponding to their Km towards the corresponding enzyme, or with a range of different concentrations for the substrate competition experiments.
Time-dependent inhibition of the target by the compound was assessed by pre-incubation of 25 uL of target enzyme at 37 °C in a 384-well plate. An 11-point dilution was carried out of the test compound followed by its addition at 0.5 uL to the enzyme plate at different time points (0 minutes, 15 minutes, 30 minutes, 1hour, 2 hours and 4 hours unless otherwise stated in the graph). At the last time point, the reaction mixture was added and the relative fluorescence was measured.

[4] = molecular target: Adenosine A1 (Homo sapiens, UniProt P30542); assay: Eurofins Hit Profiling Screen; type: binding; settings: 10 μmol/L
[5] = molecular target: Adrenergic α2A (Homo sapiens, UniProt P08913); assay: Eurofins Hit Profiling Screen; type: binding; settings: 10 μmol/L
[6] = tested on: Glutamate, NMDA, Phencyclidine; assay: Eurofins Hit Profiling Screen; type: binding; settings: 10 μmol/L
[7] = molecular target: Muscarinic M3 (Homo sapiens, UniProt P20309); assay: Eurofins Hit Profiling Screen; type: binding; settings: 10 μmol/L
[8] = tested on: Sodium Channel, Site 2; assay: Eurofins Hit Profiling Screen; type: binding; settings: 10 μmol/L
[9] = molecular target: T2, LOXL2; assay: Collagen oxidation assay; type: biochemical; parameters: purchased R&D Systems; settings: 20 nmol/L rhLOXL2, different concentrations of PXS-5153A, slope at 20-40 minute
Description: Collagen oxidation assay was based on the release of hydrogen peroxide as previously described27 and detailed in the supporting information. Briefly, collagen was combined with rhLOXL2 with or without the pan‐lysyl oxidase inhibitor BAPN (β‐aminoproprionitrile, 100 μmol/L, Sigma‐Aldrich) or PXS‐5153A. An Amplex reaction mixture was added into each well. The slope per minute of the kinetic curves for each sample was calculated using MARS data analysis software (BMG labtech) in the linear phase (between the 20 and 40 minute time points).
Collagen oxidation assay was based on the release of hydrogen peroxide as described previously described. In a 384 black well plate, 25 μL of collagen (rat tail, type I, Thermo Fisher, 1.5 mg/mL in 50 mM sodium borate buffer, pH 8.2) was combined with 25 μL rhLOXL2 (R&D Systems) with or without the pan-lysyl oxidase inhibitor BAPN (100 μM, Sigma-Aldrich) or PXS-5153A. A reaction mixture using AR (120 μM; Life Technologies), HRP (1.5 U/mL; Sigma-Aldrich) was prepared in 50 mM sodium borate buffer. […] The relative fluorescence units (RFU) were read every 1 minute for 3 hours at 37°C, excitation 565 nm and emission 590 (Clariostar, BMG labtech). The slope per minute of the kinetic curves for each sample was calculated using MARS data analysis software (BMG labtech) in the linear phase (between the 20-40 minute time points).

T1 sequence (Q08397 96-574): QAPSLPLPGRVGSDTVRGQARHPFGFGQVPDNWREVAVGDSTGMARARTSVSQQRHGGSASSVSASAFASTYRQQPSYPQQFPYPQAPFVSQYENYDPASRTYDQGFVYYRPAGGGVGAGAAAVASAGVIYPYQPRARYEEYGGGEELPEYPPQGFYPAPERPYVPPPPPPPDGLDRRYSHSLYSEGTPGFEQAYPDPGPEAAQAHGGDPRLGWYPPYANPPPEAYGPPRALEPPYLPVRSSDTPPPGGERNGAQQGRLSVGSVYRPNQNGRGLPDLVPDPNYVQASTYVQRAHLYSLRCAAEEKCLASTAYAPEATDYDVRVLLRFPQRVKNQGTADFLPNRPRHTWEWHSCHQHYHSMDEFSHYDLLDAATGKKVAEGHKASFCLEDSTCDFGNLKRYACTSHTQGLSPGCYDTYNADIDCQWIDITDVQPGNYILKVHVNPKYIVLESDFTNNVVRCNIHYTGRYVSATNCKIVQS
Chain of MAO-B (P27338 whole entry): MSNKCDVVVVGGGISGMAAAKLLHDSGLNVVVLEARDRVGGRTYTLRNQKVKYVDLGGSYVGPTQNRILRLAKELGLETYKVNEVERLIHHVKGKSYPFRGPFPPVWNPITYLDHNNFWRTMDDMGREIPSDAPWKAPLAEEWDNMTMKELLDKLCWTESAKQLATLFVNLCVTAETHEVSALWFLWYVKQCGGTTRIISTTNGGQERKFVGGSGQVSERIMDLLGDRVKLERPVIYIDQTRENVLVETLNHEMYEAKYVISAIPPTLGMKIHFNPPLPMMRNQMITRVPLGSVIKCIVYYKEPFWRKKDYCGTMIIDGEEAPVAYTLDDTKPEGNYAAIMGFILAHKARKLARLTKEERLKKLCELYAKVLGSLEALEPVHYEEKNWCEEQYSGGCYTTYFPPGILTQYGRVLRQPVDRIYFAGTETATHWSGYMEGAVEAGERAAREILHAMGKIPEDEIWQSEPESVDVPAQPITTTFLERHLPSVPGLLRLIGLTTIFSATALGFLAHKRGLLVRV
Chain of Adenosine A1 (P30542 whole entry): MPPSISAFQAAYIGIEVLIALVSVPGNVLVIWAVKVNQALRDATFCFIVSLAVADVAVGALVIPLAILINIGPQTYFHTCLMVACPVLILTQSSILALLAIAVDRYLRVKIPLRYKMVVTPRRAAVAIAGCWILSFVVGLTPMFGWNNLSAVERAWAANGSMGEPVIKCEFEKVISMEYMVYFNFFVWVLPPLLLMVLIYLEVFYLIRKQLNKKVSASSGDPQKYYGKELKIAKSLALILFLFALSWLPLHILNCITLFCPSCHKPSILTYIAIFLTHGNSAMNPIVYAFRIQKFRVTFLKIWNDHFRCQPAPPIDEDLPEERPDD
Chain of Muscarinic M3 (P20309 whole entry): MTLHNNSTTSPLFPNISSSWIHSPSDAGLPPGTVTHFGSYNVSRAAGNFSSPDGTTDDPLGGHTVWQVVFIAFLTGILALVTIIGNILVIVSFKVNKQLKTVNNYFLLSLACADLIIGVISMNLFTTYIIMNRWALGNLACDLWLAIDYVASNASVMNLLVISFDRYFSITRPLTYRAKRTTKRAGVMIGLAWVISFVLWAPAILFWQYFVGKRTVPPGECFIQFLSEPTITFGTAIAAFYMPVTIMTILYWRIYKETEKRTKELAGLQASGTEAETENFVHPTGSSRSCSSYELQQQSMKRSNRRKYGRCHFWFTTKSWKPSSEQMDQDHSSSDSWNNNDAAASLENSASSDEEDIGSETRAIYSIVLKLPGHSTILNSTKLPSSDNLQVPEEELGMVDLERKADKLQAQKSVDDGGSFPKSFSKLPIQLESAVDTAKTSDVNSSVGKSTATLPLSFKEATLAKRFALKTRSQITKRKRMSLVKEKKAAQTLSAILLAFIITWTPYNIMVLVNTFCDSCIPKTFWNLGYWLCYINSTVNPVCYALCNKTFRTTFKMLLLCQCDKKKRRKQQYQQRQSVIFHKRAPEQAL
Chain of Adrenergic α2A (P08913 whole entry): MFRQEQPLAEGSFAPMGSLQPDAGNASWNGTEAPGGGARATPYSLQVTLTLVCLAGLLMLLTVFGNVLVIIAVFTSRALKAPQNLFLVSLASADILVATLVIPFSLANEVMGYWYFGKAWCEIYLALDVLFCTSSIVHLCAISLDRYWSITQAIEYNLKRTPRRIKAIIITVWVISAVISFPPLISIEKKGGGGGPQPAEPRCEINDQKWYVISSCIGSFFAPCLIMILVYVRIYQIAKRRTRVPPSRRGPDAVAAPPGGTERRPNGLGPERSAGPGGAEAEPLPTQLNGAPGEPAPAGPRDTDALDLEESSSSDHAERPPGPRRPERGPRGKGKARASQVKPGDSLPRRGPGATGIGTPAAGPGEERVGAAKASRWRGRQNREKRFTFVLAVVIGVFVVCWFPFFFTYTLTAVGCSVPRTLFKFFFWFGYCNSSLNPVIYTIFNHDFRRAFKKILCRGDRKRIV

SMILES: Cc1c(-c2cccc(S(=O)(=O)N(C)C)c2)c2ncccc2n1C/C(F)=C/CN.Cl.Cl [PXS-5153A]
- IC50 [1]: 1410 nM
- pIC50 ± SD [1]: 5.8 ± 0.23
- IC50 [2]: > 30000 nM
- time to complete inhibition of the enzyme ([3]; at 10xIC50): ≤ 15 min
- time until enzymatic activity almost entirely blocked ([3]; judged by the shift in the concentration response curves): ≤ 15 min
- time-dependent LOXL2 inhibition ([3]; longer incubation with the enzyme): increased potency upon longer incubation with the enzyme
- % inhibition [4]: 9%
- % inhibition [5]: 97%
- % inhibition [6]: 3%
- % inhibition [7]: 9%
- % inhibition [8]: 57%
- collagen oxidation [9]: impeding collagen oxidation
